According to patent publication US20110070232A1, “Combination Therapy with an Antitumor Alkaloid” (Pharma Mar, S.A., priority 2008, published 2011):
Like-named read-outs stand apart in the source and are kept apart here.

Key:
[1] = system: MIA PaCA-2 human pancreatic carcinoma cell line; experiment: IC50 determination, MTS assay, 72 h (Example 3); format: cell-based; details: 72 hours of drug exposure
Method: (§1) Gemcitabine (Gemzar®) was the agent evaluated in combination with PM00104. The human pancreatic carcinoma cell lines selected for this assay were the following: BxPC-3, PANC-1, MIA PaCA-2, and SW1990 cell lines. BxPC-3 cell line was grown in RPMI 1640 medium supplemented with 10% FBS, 1.5 g/L sodium bicarbonate, 4.5 g/L glucose, 10 mM HEPES, 1 mM sodium pyruvate, and 2 mM L-glutamine. PANC-1 cell line was grown in DMEM supplemented with 10% FBS, 1.5 g/L sodium bicarbonate, 4.5 g/L glucose, and 4 mM L-glutamine. MIA PaCA-2 cell line was grown in DMEM supplemented with 10% FBS, 1.5 g/L sodium bicarbonate, 4.5 g/L glucose, 2.5% Horse Serum, and 2 mM L-glutamine. SW1990 cell line was grown in RPMI 1640 medium supplemented with 10% FBS and 2 mM L-glutamine.
(§2) a. […] It was used the same methodology as those disclosed in Example 1.
(§3) IC50 values were calculated from an average of three assays for each of the test agents.

[2] = system: PANC-1 human pancreatic carcinoma cell line; experiment: IC50 determination, MTS assay, 72 h (Example 3); format: cell-based; details: 72 hours of drug exposure
Method: as §1, §2, §3

[3] = system: MRI-H-254 tumors; format: in vivo, mice; details: for % T/C on day 17 / % T/C on day 20 / % T/C on day 24 / % T/C on day 27 / % T/C on day 32 / % T/C on day 35 / % T/C on day 39 / % T/C on day 47: doxorubicin 6 IP
Method: Female athymic nude mice (Harlan Sprague Dawley, Madison, Wis.) were utilized for all experiments. Animals were housed in ventilated rack caging with food and water ad libitum. The mice were acclimated for at least 5 days prior to tumor implantation with tumor fragments. The Vehicle Control group contained 11 mice, groups 2-6 contained 8 mice/group, and the rest of groups contained 9 mice/group.
This cell line was grown and implanted to the animals as described in Example 11.
Tumor measurements were determined as disclosed in Example 4. […] Treatments were initiated on DPI 17.
PM00104 was provided in the form of vials of lyophilized PM00104 powder which was reconstituted with water for injection.
(§4) Tumor size measurements were recorded twice weekly from the treatment initiation until the termination of the study.
(§5) Mean, standard deviation and standard error of the mean were determined for tumor volume for all animal groups at all assessments. Student's t test was performed on tumor volumes at each measurement day, including at the end of the study, to determine whether there were any statistically significant differences between combination treatment groups and single monotherapy treatment groups.
The definition and criteria for the evaluation of potentiation and the degree of additivity for the combination therapy were the same as those disclose in Example 4.

[4] = system: MRI-H-254 tumors; format: in vivo, mice
Method: Female athymic nude mice (Harlan Sprague Dawley, Madison, Wis.) were utilized for all experiments. Animals were housed in ventilated rack caging with food and water ad libitum. The mice were acclimated for at least 5 days prior to tumor implantation with tumor fragments.
Treatments were initiated on DPI 16.
as §4, §5

[5] = system: HT-29 (colon cancer) cell line; experiment: IC50 determination, MIT (tetrazolium) assay, 72 h (Example 18); format: cell-based, human; details: Homo sapiens; HT-29, 72 hours of drug exposure
[6] = system: LoVo (colon cancer) cell line; experiment: as above; format: cell-based, human; details: Homo sapiens, 72 hours of drug exposure
[7] = system: HCT-116 (colon cancer) cell line; experiment: as above; format: cell-based, human; details: Homo sapiens; HCT-116, 72 hours of drug exposure
Method: HCT-116 cells were grown in McCoy's supplemented with 10% Fetal Bovine Serum (FBS), 1% penicillin/streptomycin and 2 mM L-glutamine.
Before plating, cell cultures were trypsinized and cell number estimated using an automated flow cytometer.
Cells were harvested and seeded in 96 well microtiter plates at the appropriate cell density (5,000-10,000 cells) in 150 μL of media and incubated for 24 hours to allow the cells to attach before drug addition.
After the incubation period (72 hours), 50 μL of MIT solution was added to each microtiter well and incubated for further 8 hours at 37° C. The culture medium was then removed and 50 μl, of DMSO were added to dissolve the MIT crystals. Optical densities were read at 540 nm on spectrophotometer microplate reader.
IC50 values were calculated from an average of two to four assays for each of the test agents.

[8] = PM00104 0.23 IV, paclitaxel 12.5 IP mg/kg/day (G4, G11, G12)
[9] = PM00104 0.45 IV, paclitaxel 12.5 IP mg/kg/day (G3, G9, G10)
[10] = PM00104 0.90 IV, paclitaxel 12.5 IP mg/kg/day (G2, G5, G6, G7, G8)
[11] = day 16, PM00104 0.90, cisplatin 5, irinotecan 18, paclitaxel 25 mg/kg/day
[12] = day 20, PM00104 0.90, cisplatin 5, irinotecan 18, paclitaxel 25 mg/kg/day
[13] = day 23, PM00104 0.90, cisplatin 5, irinotecan 18, paclitaxel 25 mg/kg/day
[14] = day 26, PM00104 0.90, cisplatin 5, irinotecan 18, paclitaxel 25 mg/kg/day
[15] = day 29, PM00104 0.90, cisplatin 5, irinotecan 18, paclitaxel 25 mg/kg/day
[16] = day 33, PM00104 0.90, cisplatin 5, irinotecan 18, paclitaxel 25 mg/kg/day
[17] = day 40, PM00104 0.90, cisplatin 5, irinotecan 18, paclitaxel 25 mg/kg/day
[18] = day 48, PM00104 0.90, cisplatin 5, irinotecan 18, paclitaxel 25 mg/kg/day

For `COc1c(C)cc2c(c1O)[C@@H]1[C@@H]3Cc4c(OC(C)=O)c(C)c5c(c4[C@H](CNC(=O)/C=C/c4cccc(C(F)(F)F)c4)N3[C@@H](O)[C@H](C2)N1C)OCO5` [PM00104], the IC50 [1] was 0.093 µg/mL, the IC50 [2] was 0.015 µg/mL and the “% T/C on day 17” value [3, 8] was 97.5%. For the same compound, the “% T/C on day 20” value [3, 8] was 113.0%, the “% T/C on day 24” value [3, 8] was 89.9% and the “% T/C on day 27” value [3, 8] was 75.9%. The “% T/C on day 32” value [3, 8] was 72.7%, the “% T/C on day 35” value [3, 8] was 62.4% and the “% T/C on day 39” value [3, 8] was 57.6%. The “% T/C on day 47” value [3, 8] was 66.8%, the “% T/C on day 17” value [3, 9] was 100.0% and the “% T/C on day 20” value [3, 9] was 109.2%. For the same compound, the “% T/C on day 24” value [3, 9] was 91.3%, the “% T/C on day 27” value [3, 9] was 71.0% and the “% T/C on day 32” value [3, 9] was 51.8%. For the same compound, the “% T/C on day 35” value [3, 9] was 38.4%, the “% T/C on day 39” value [3, 9] was 31.8% and the “% T/C on day 47” value [3, 9] was 21.5%. For the same compound, the “% T/C on day 17” value [3, 10] was 98.5%, the “% T/C on day 20” value [3, 10] was 95.6% and the “% T/C on day 24” value [3, 10] was 56.9%. The “% T/C on day 27” value [3, 10] was 46.4%, the “% T/C on day 32” value [3, 10] was 31.2% and the “% T/C on day 35” value [3, 10] was 22.6%. The “% T/C on day 39” value [3, 10] was 14.5%, the “% T/C on day 47” value [3, 10] was 9.5% and the “% Inhibition” value ([3]; day 14, PM00104 0.23, doxorubicin 6, paclitaxel 12.5 mg/kg/day) was 2.5%. For the same compound, the “% Inhibition” value ([3]; day 14, PM00104 0.45, doxorubicin 6, paclitaxel 12.5 mg/kg/day) was 0.0%, the “% Inhibition” value ([3]; day 14, PM00104 0.90, paclitaxel 12.5 mg/kg/day) was 1.5% and the “% Inhibition” value ([3]; day 14, PM00104 0.9 and doxorubicin 6 mg/kg/day) was 1.5%. For the same compound, the “% Inhibition” value ([3]; day 20, PM00104 0.23, doxorubicin 6, paclitaxel 12.5 mg/kg/day) was −13.0%, the “% Inhibition” value ([3]; day 20, PM00104 0.45, doxorubicin 6, paclitaxel 12.5 mg/kg/day) was −9.2% and the “% Inhibition” value ([3]; day 20, PM00104 0.90, paclitaxel 12.5 mg/kg/day) was 4.4%. For the same compound, the “% Inhibition” value ([3]; day 20, PM00104 0.9 and doxorubicin 6 mg/kg/day) was 4.4%, the “% Inhibition” value ([3]; day 24, PM00104 0.23, doxorubicin 6, paclitaxel 12.5 mg/kg/day) was 10.1% and the “% Inhibition” value ([3]; day 24, PM00104 0.45, doxorubicin 6, paclitaxel 12.5 mg/kg/day) was 8.7%. For the same compound, the “% Inhibition” value ([3]; day 24, PM00104 0.90, paclitaxel 12.5 mg/kg/day) was 43.1%, the “% Inhibition” value ([3]; day 24, PM00104 0.9 and doxorubicin 6 mg/kg/day) was 43.1% and the “% Inhibition” value ([3]; day 27, PM00104 0.23, doxorubicin 6, paclitaxel 12.5 mg/kg/day) was 24.1%. The “% Inhibition” value ([3]; day 27, PM00104 0.45, doxorubicin 6, paclitaxel 12.5 mg/kg/day) was 29.0%, the “% Inhibition” value ([3]; day 27, PM00104 0.90, paclitaxel 12.5 mg/kg/day) was 53.6% and the “% Inhibition” value ([3]; day 27, PM00104 0.9 and doxorubicin 6 mg/kg/day) was 53.6%. The “% Inhibition” value ([3]; day 32, PM00104 0.23, doxorubicin 6, paclitaxel 12.5 mg/kg/day) was 27.3%, the “% Inhibition” value ([3]; day 32, PM00104 0.45, doxorubicin 6, paclitaxel 12.5 mg/kg/day) was 48.2% and the “% Inhibition” value ([3]; day 32, PM00104 0.90, paclitaxel 12.5 mg/kg/day) was 68.8%. For the same compound, the “% Inhibition” value ([3]; day 32, PM00104 0.9 and doxorubicin 6 mg/kg/day) was 68.8%, the “% Inhibition” value ([3]; day 35, PM00104 0.23, doxorubicin 6, paclitaxel 12.5 mg/kg/day) was 37.6% and the “% Inhibition” value ([3]; day 35, PM00104 0.45, doxorubicin 6, paclitaxel 12.5 mg/kg/day) was 61.6%. For the same compound, the “% Inhibition” value ([3]; day 35, PM00104 0.90, paclitaxel 12.5 mg/kg/day) was 77.4%, the “% Inhibition” value ([3]; day 35, PM00104 0.9 and doxorubicin 6 mg/kg/day) was 77.4% and the “% Inhibition” value ([3]; day 39, PM00104 0.23, doxorubicin 6, paclitaxel 12.5 mg/kg/day) was 42.4%. For the same compound, the “% Inhibition” value ([3]; day 39, PM00104 0.45, doxorubicin 6, paclitaxel 12.5 mg/kg/day) was 68.2%, the “% Inhibition” value ([3]; day 39, PM00104 0.90, paclitaxel 12.5 mg/kg/day) was 85.5% and the “% Inhibition” value ([3]; day 39, PM00104 0.9 and doxorubicin 6 mg/kg/day) was 85.5%. For the same compound, the “% Inhibition” value ([3]; day 47, PM00104 0.23, doxorubicin 6, paclitaxel 12.5 mg/kg/day) was 33.2%, the “% Inhibition” value ([3]; day 47, PM00104 0.45, doxorubicin 6, paclitaxel 12.5 mg/kg/day) was 78.5% and the “% Inhibition” value ([3]; day 47, PM00104 0.90, paclitaxel 12.5 mg/kg/day) was 90.5%. For the same compound, the “% Inhibition” value ([3]; day 47, PM00104 0.9 and doxorubicin 6 mg/kg/day) was 90.5%, the “% Inhibition” value ([4]; day 16, PM00104 0.90, cisplatin 3, irinotecan 10, paclitaxel 12.5 mg/kg/day) was 2.0% and the “% Inhibition” value [4, 11] was 2.0%. The “% T/C” value [4, 11] was 98.0%, the “% Inhibition” value ([4]; day 20, PM00104 0.90, cisplatin 3, irinotecan 10, paclitaxel 12.5 mg/kg/day) was 6.1% and the “% Inhibition” value [4, 12] was 6.1%. For the same compound, the “% T/C” value [4, 12] was 93.9%, the “% Inhibition” value ([4]; day 23, PM00104 0.90, cisplatin 3, irinotecan 10, paclitaxel 12.5 mg/kg/day) was 43.9% and the “% Inhibition” value [4, 13] was 43.9%. The “% T/C” value [4, 13] was 56.1%, the “% Inhibition” value ([4]; day 26, PM00104 0.90, cisplatin 3, irinotecan 10, paclitaxel 12.5 mg/kg/day) was 59.4% and the “% Inhibition” value [4, 14] was 59.4%. The “% T/C” value [4, 14] was 40.6%, the “% Inhibition” value ([4]; day 29, PM00104 0.90, cisplatin 3, irinotecan 10, paclitaxel 12.5 mg/kg/day) was 61.7% and the “% Inhibition” value [4, 15] was 61.7%. For the same compound, the “% T/C” value [4, 15] was 38.3%, the “% Inhibition” value ([4]; day 33, PM00104 0.90, cisplatin 3, irinotecan 10, paclitaxel 12.5 mg/kg/day) was 72.0% and the “% Inhibition” value [4, 16] was 72.0%. For the same compound, the “% T/C” value [4, 16] was 28.0%, the “% Inhibition” value ([4]; day 40, PM00104 0.90, cisplatin 3, irinotecan 10, paclitaxel 12.5 mg/kg/day) was 81.8% and the “% Inhibition” value [4, 17] was 81.8%. For the same compound, the “% T/C” value [4, 17] was 18.2%, the “% Inhibition” value ([4]; day 48, PM00104 0.90, cisplatin 3, irinotecan 10, paclitaxel 12.5 mg/kg/day) was 84.4% and the “% Inhibition” value [4, 18] was 84.4%. For the same compound, the “% T/C” value [4, 18] was 15.6%, the IC50 [5] was 6 nM and the IC50 [6] was 3 nM. The IC50 [7] was 9 nM.
